{"source": "patent US20220211860A1", "about": "“PEPTIDE DERIVATIVES AND CONJUGATES THEREOF FOR TREATING CANCER” (priority 2019, published 2022)", "key": {"[1]": {"test_system": "SK-BR-3", "settings": "read-out: IC50 inhibition of cell growth", "quoted_text": "(§2) The IC50 values (μM) were estimated from concentration-response curves using non-linear regression for inhibition of cell growth. Data are expressed as mean±SD from at least three independent experiments, each in triplicate. Statistical analysis was performed using a two-way ANOVA (* p<0.05, the IC50 for each compared with that of their corresponding parent peptide for the same cell line)."}, "[2]": {"test_system": "MCF-7", "settings": "read-out: IC50 inhibition of cell growth", "quoted_text": "as §2"}, "[3]": {"test_system": "MDA-MB-231", "settings": "read-out: IC50 inhibition of cell growth", "quoted_text": "as §2"}, "[4]": {"test_system": "SKOV-3", "settings": "read-out: IC50 inhibition of cell growth", "quoted_text": "as §2"}, "[5]": {"test": "in vitro", "settings": "human, plasma, half-life (T1/2)", "quoted_text": "As described herein in vitro metabolic stability in plasma is defined as the susceptibility of a chemical compound to biotransformation in plasma, and is expressed as in vitro half-life (T1/2).\n(B) The metabolic stability of LHRH peptide derivatives examined in human plasma and quantified by Liquid Chromatography-Mass-Spectrometry (LC-MS) in a time dependent manner. […] Statistical analysis was performed using a one-way ANOVA followed by Dunnett's post-hoc test. Error bars are standard deviations (STDV), p<0.05, n=9 (3 independent experiments each performed in triplicate)."}, "[6]": {"test_system": "HMEC", "test": "MTT cytotoxicity assay, HMEC normal breast cells", "type": "cell-based", "settings": "72 h", "method": "(§1) FIG. 4A to 4E: The cytotoxic activity of the peptide conjugate LD5-mc-vc-PABC-MMAE (LM) in comparison to MMAE was assessed in MDA-MB-231 (TNBC cell model) versus HMEC and MCF-10A (normal breast cells) and SKOV-3 (low LHRH-R expressing cell model), by MTT assay after incubating cells with compounds in serial dilution for 72 h. (A) The relative cellular viability was assessed in comparison to PBS-treated negative control group and IC50 value (nM) was calculated by non-linear regression (curve fit) for HMEC and MCF-10A (normal breast cells) and MDA-MB-231 (LHRH-R positive, TNBC cell model) and SKOV-3 (LHRH-R low expressing cells). (B) The cell viability in LD5-me-vc-PABC-MMAE (LM) was assessed in HMEC as normal breast cell line in comparison to MMAE by two-way ANOVA followed by Sidak's multiple comparisons test (****p<0.0001). (C) The cell viability in LD5-mc-vc-PABC-MMAE (LM) was assessed in MCF-10A as normal breast cell line in comparison to MMAE by two-way ANOVA followed by Sidak's multiple comparisons test (***p<0.001, **p<0.01, *p<0.05). (D) The cell viability in LD5-me-vc-PABC-MMAE (LM) was assessed in MDA-MB-231 (TNBC cell model) in comparison to MMAE by two-way ANOVA followed by Sidak's multiple comparisons test (****p<0.0001). […]"}, "[7]": {"test_system": "SKOV-3", "test": "MTT cytotoxicity assay, SKOV-3 (low LHRH-R expressing)", "type": "cell-based", "settings": "SKOV-3, 72 h", "method": "as §1"}, "[8]": {"test_system": "α-tubulin polymerisation", "test": "α-tubulin immunostaining in TNBC and normal breast cells", "type": "cell-based", "settings": "TNBC cells and normal breast cells, 1 µM, 18 h", "method": "FIGS. 8A and 8B: The effect of MMAE and LD5-me-vc-PABC-MMAE (LM) on α-tubulin polymerization. (A) MDA-MB-231 (TNBC cell model) and normal breast cells (HMEC and MCF-10A) were treated with free MMAE and LM at 1 μM and PBS (control) followed by immunostaining of α-tubulin with primary and secondary antibodies. The α-tubulin signals were detected by LEICA SPE2 confocal LSM. (B) The α-tubulin signal intensity was measured by Fiji J software in normal breast cells (HMEC and MCF-10A) and MDA-MB-231. ****p<0.0001 is the significance in the signal intensity in each cell line treated with PBS and LM in comparison to MMAE-treated cells. ####p<0.0001 is the significance of the α-tubulin signal intensity in MDA-MB-231 cells treated with LM in comparison to MCF-10A and HMEC cells. […] Statistical analysis was made in Prism by two-way ANOVA followed by Tukey's multiple comparisons test. Error bars are standard deviations (STDV), n=8 (3 independent repeats).\nThe intracellular effects of MMAE on α-tubulin polymerisation were examined using α-tubulin immunostaining in TNBC cells (MDA-MB-231) and normal breast cells (MCF-10A and HMEC) treated with MMAE and MMAE conjugated with LD5 (LD5-mc-vc-PABC-MMAE). TNBC cells and normal breast cells were fixed after incubating with […] of MMAE and LD5-mc-vc-PABC-MMAE for 18 h along with PBS as a control. […]"}, "[9]": {"test_system": "MCF-10A", "test": "MTT cytotoxicity assay, MCF-10A normal breast cells", "type": "cell-based", "settings": "72 h", "method": "as §1"}, "[10]": {"test_system": "mice", "test": "MTD of brentuximab vedotin in mice (comparison)", "type": "in vivo", "excerpt": "Therefore, the MTD was not reached at this dose. With the corresponding ADCs bearing MMAE the MTD has been considerably lower."}, "[11]": {"test_system": "mice", "settings": "cited from earlier work"}}, "note": "Like-named read-outs stand apart in the source and are kept apart here. Non-standard residues stand in square brackets, D forms with d. Residues, ends and D or L forms follow the SMILES beside them. *: point of attachment. Dolaproine = CO[C@@H]([C@@H]1CCCN1)[C@@H](C)C(=O)O; Dil = CC[C@H](C)[C@H](NC)[C@@H](CC(=O)O)OC; X1 = C[C@@H](N*)[C@@H](O)c1ccccc1; NMeV = CN[C@H](C(=O)O)C(C)C"}
{"compound": "CCNC(=O)[C@@H]1CCCN1C(=O)[C@H](CCCNC(=N)N)NC(=O)[C@H](CC(C)C)NC(=O)[C@@H](CCCCN)NC(=O)[C@H](Cc1ccc(O)cc1)NC(=O)[C@H](CO)NC(=O)[C@H](Cc1c[nH]c2ccccc12)NC(=O)[C@H](Cc1c[nH]cn1)NC(=O)[C@@H](N)CCC(N)=O", "note": "[LD4, Gln-His-Trp-Ser-Tyr-D-Lys-Leu-Arg-Pro-NHCH2CH3] (H-QHWSY[dK]LRP-NHEt)", "values": [{"measurement": "IC50", "setting": "[1]", "value": "31.2 ± 4.8", "unit": "µM"}, {"measurement": "IC50", "setting": "[2]", "value": "51.3 ± 3.1", "unit": "µM"}, {"measurement": "IC50", "setting": "[3]", "value": "36.2 ± 0.8", "unit": "µM"}, {"measurement": "IC50", "setting": "[4]", "value": "> 100", "unit": "µM"}, {"measurement": "half-life", "setting": "[5]", "value": "~4.28", "unit": "h"}]}
{"compound": "CCNC(=O)[C@@H]1CCCN1C(=O)[C@H](CCCNC(=N)N)NC(=O)[C@H](CC(C)C)NC(=O)[C@@H](CCCCN)NC(=O)[C@H](Cc1ccc(O)cc1)NC(=O)[C@H](CO)NC(=O)[C@H](Cc1c[nH]c2ccccc12)NC(=O)[C@H](Cc1c[nH]cn1)NC(=O)[C@@H]1CCC(=O)N1", "note": "[LD5, pGlu-His-Trp-Ser-Tyr-D-Lys-Leu-Arg-Pro-NHCH2CH3]", "values": [{"measurement": "IC50", "setting": "[1]", "value": "33.5 ± 2.5", "unit": "µM"}, {"measurement": "IC50", "setting": "[2]", "value": "47.6 ± 5.4", "unit": "µM"}, {"measurement": "IC50", "setting": "[3]", "value": "38.1 ± 1.4", "unit": "µM"}, {"measurement": "IC50", "setting": "[4]", "value": "> 100", "unit": "µM"}, {"measurement": "half-life", "setting": "[5]", "value": "~6.08", "unit": "h"}]}
{"compound": "CCNC(=O)[C@@H]1CCCN1C(=O)[C@H](CCCNC(=N)N)NC(=O)[C@H](CC(C)C)NC(=O)[C@@H](CCCCNC(=O)CCCCCN)NC(=O)[C@H](Cc1ccc(O)cc1)NC(=O)[C@H](CO)NC(=O)[C@H](Cc1c[nH]c2ccccc12)NC(=O)[C@H](Cc1c[nH]cn1)NC(=O)[C@@H]1CCC(=O)N1", "note": "[LD6, pGlu-His-Trp-Ser-Tyr-D-Lys(Ahx)-Leu-Arg-Pro-NHCH2CH3]", "values": [{"measurement": "IC50", "setting": "[1]", "value": "29.7 ± 1.1", "unit": "µM"}, {"measurement": "IC50", "setting": "[2]", "value": "49.2 ± 2.1", "unit": "µM"}, {"measurement": "IC50", "setting": "[3]", "value": "33.2 ± 2.5", "unit": "µM"}, {"measurement": "IC50", "setting": "[4]", "value": "> 100", "unit": "µM"}, {"measurement": "half-life", "setting": "[5]", "value": "~5.15", "unit": "h"}]}
{"compound": "CC(C)C[C@H](NC(=O)CNC(=O)[C@H](Cc1ccc(O)cc1)NC(=O)[C@H](CO)NC(=O)[C@H](Cc1c[nH]c2ccccc12)NC(=O)[C@H](Cc1c[nH]cn1)NC(=O)[C@@H]1CCC(=O)N1)C(=O)N[C@@H](CCCNC(=N)N)C(=O)N1CCC[C@H]1C(=O)NCC(N)=O", "note": "[LHRH, pGlu-His-Trp-Ser-Tyr-Gly-Leu-Arg-Pro-Gly-NH2, reference compound]", "values": [{"measurement": "IC50", "setting": "[1]", "value": "> 100", "unit": "µM"}, {"measurement": "IC50", "setting": "[2]", "value": "> 100", "unit": "µM"}, {"measurement": "IC50", "setting": "[3]", "value": "> 100", "unit": "µM"}, {"measurement": "IC50", "setting": "[4]", "value": "> 100", "unit": "µM"}, {"measurement": "half-life", "setting": "[5]", "value": "~0.167", "unit": "h"}]}
{"compound": "CC[C@H](C)[C@@H]([C@@H](CC(=O)N1CCC[C@H]1[C@H](OC)[C@@H](C)C(=O)N[C@H](C)[C@@H](O)c1ccccc1)OC)N(C)C(=O)[C@@H](NC(=O)[C@@H](NC)C(C)C)C(C)C", "note": "[MMAE, monomethyl auristatin E] (H-[NMeV]V[Dil][Dolaproine]-X1)", "values": [{"measurement": "IC50", "setting": "[6]", "value": 0.00011, "unit": "µM"}, {"measurement": "IC50", "setting": "[7]", "value": 0.03, "unit": "nM"}, {"measurement": "α-tubulin formation compared to PBS control", "setting": "[8]", "value": "dramatic decrease in α-tubulin formation"}, {"measurement": "IC50", "setting": "[9]", "value": 0.00083, "unit": "µM"}]}
{"compound": "CC(C)C[C@H](NC(=O)[C@@H](CCCCN)NC(=O)[C@H](Cc1ccc(O)cc1)NC(=O)[C@H](CO)NC(=O)[C@H](Cc1c[nH]c2ccccc12)NC(=O)[C@H](Cc1cnc[nH]1)NC(=O)[C@@H]1CCC(=O)N1)C(=O)N[C@@H](CCCNC(=N)N)C(=O)N1CCC[C@H]1C(=O)NCC(N)=O", "note": "[[k^6] LHRH, reference compound]", "values": [{"measurement": "half-life", "setting": "[5]", "value": "~0.65", "unit": "h"}]}
{"compound": "CC(C)C[C@H](NC(=O)[C@@H](Cc1c[nH]c2ccccc12)NC(=O)[C@H](Cc1ccc(O)cc1)NC(=O)[C@H](CO)NC(=O)[C@H](Cc1c[nH]c2ccccc12)NC(=O)[C@H](Cc1c[nH]cn1)NC(=O)[C@@H]1CCC(=O)N1)C(=O)N[C@@H](CCCNC(=N)N)C(=O)N1CCC[C@H]1C(=O)NCC(N)=O", "note": "[triptorelin, reference compound]", "values": [{"measurement": "IC50", "setting": "[1]", "value": "81.2 ± 7.2", "unit": "µM"}, {"measurement": "IC50", "setting": "[2]", "value": "79.4 ± 5.3", "unit": "µM"}, {"measurement": "IC50", "setting": "[3]", "value": "68.1 ± 8.1", "unit": "µM"}, {"measurement": "IC50", "setting": "[4]", "value": "> 100", "unit": "µM"}, {"measurement": "half-life", "setting": "[5]", "value": "~0.317", "unit": "h"}]}
{"compound": "brentuximab vedotin: ADC in the clinic containing MMAE", "values": [{"measurement": "MTD expressed as equivalent of LHRHD-(mc-vc-PABC)-MMAE", "setting": "[10]", "value": "approximately 70 mg/kg"}, {"measurement": "MTD", "setting": "[11]", "value": "30 to 40", "unit": "mg/kg"}]}
